Source: publication PMC4454681, “Design and Evaluation of Antimalarial Peptides Derived from Prediction of Short Linear Motifs in Proteins Related to Erythrocyte Invasion” (PLoS ONE, 2015)
Entries after “also recorded” stand apart in the source; their conditions may differ. Where a SMILES comes first, the peptide text is derived from it. The star is where a group is joined. Palmitoyl = CCCCCCCCCCCCCCCC(=O)*

What was measured:
[1] = tested on: 3D7 line of P. falciparum; experiment: Peptide inhibition of parasite growth (pLDH method); type: cell-based, Plasmodium falciparum; conditions: for Growth inhibition: 100 μM peptide, 48 hour and 72 hour time points, asynchronous cultures, 2% haematocrit, 0.8% initial parasitaemia, max 0.5% DMSO, pLDH activity; for Growth inhibition / Concentration-response relationship of growth inhibition / Growth inhibition (dose-response curves): means of three experiments in duplicate; for Concentration-response relationship of growth inhibition: ten concentrations between 10 μM and 100 μM; for Concentration-response relationship of growth inhibition / Growth inhibition (dose-response curves): 48 and 72 hours
Description: P. falciparum line 3D7, adapted to grow in Albumax® (BioSciences, Dun Laoghaire, Ireland), was cultured in human erythrocytes (Irish Blood Transfusion Board, Ireland) in standard growth medium, in candle jars. Fresh erythrocytes were obtained every three weeks and washed according to lab protocols. Staining of blood smears was with Giemsa stain. The number of infected erythrocytes was counted by microscopy and the parasitaemia was calculated.
The antimalarial activity of test peptides (ChinaPeptides Co. Ltd, Shanghai, China) was determined in culture on the 3D7 line of P. falciparum using the parasite lactate dehydrogenase (pLDH) method in 96-well microtitre plates with modifications as previously described. Each test peptide was initially evaluated at three different concentrations, 100 μM, 10 μM and 1 μM, to determine activity range. The effect of the compounds was evaluated at 48 and 72 hours on growth of asynchronous cultures (cultured as described in the previous section) of P. falciparum, determined by the assay of pLDH activity. We used unsynchronised cultures in order (i) to make no prior assumptions about the stage of growth that might be inhibited and (ii) to avoid possible inhibitory effects of the synchronising protocol, e.g. sorbitol treatment, separation techniques, etc. The appropriate dilutions of the compounds were prepared in DMSO and added to the cultures of P. falciparum (2% haematocrit, 0.8% initial parasitaemia and a maximum of 0.5% DMSO). The same methodology was then used to assess the dose-response curves of peptides 5, 7, 10, 11, 12, 13 using ten concentrations between 10 μM and 100 μM.

[2] = tested on: P. falciparum late stages (trophozoite/schizont) introduced to fresh erythrocytes; experiment: Schizont to ring development assay; type: cell-based, Plasmodium falciparum; conditions: 100 μM peptide, 2 hours with magnetically purified schizonts, washed, fresh erythrocytes 14–16 hours; rings counted in Giemsa smears; two experiments in triplicate
Text: Routine erythrocytic P. falciparum cultures are an asynchronous culture consisting of rings, trophozoites, schizonts and merozoites. To enrich for the late stages of erythrocytic development, parasites at high parasitaemia (>15%) were subjected to magnetic selection. Parasitised erythrocytes were passed over a CS column (Miltenyi Biotec, Surrey, UK) which was mounted on a VarioMacs magnet (Miltenyi Biotec, Surrey, UK). The column was then washed with incomplete medium (RPMI 1640 supplemented with 25 mM HEPES, hypoxanthine [50 μg/ml], 0.16% w/v glucose) to remove unparasitised erythrocytes and was then removed from the magnet, a further wash with incomplete medium eluting late-stage parasitised erythrocytes.
Parasites synchronised to late stages (trophozoite/schizont) by magnetic selection were incubated with either the peptide being tested (100 μM concentration) or vehicle only control (DMSO) in complete medium for two hours. Treated schizonts were washed with complete medium and centrifugation at 350 xg for 10 minutes. Washing was repeated twice. Treated schizonts were then introduced to fresh erythrocytes at 2.5% hematocrit and incubated overnight (14–16 hours) with shaking. Parasitaemia was assessed by counting the number of ring stages in parasitised erythrocytes in Giemsa stained blood smears by light microscopy. This crude assay measures not just invasion but merozoite release and early ring-stage development.

[3] = tested on: erythrocytes from healthy human volunteers; conditions: 100 μM peptide; approx. 1.5 × 10^8 erythrocytes, 15 minutes at 37°C, buffer A pH 7.4; absorbance 405 nm; compared with 0.1% (v/v) Triton X-100 = 100%; duplicate, three donors
Description: The hemolytic activity of the peptides was investigated using erythrocytes from healthy human volunteers. Blood was collected in the presence of 15% anticoagulant acid citrate glucose (ACD) (38 mM citric acid, 75 mM sodium citrate, 124 mM glucose) and was centrifuged at 150 xg for 10 minutes at room temperature. Plasma was removed and erythrocytes were washed twice with buffer A (pH 7.4) (130 mM sodium chloride, 10 mM sodium citrate, 9 mM sodium biocarbonate, 6 mM glucose, 0.9 mM magnesium chloride, 0.81 mM potassium hydrogen phosphate, 10 mM Tris), by cenrifugation at 1,000 xg for 5 minutes and resuspended in the same buffer. For the hemolysis assay approximately 1.5 × 10^8 erythrocytes were incubated with solutions of peptides 5, 10 or 12-Cam at 100 μM and 10 μM concentrations for 15 minutes at 37°C. After incubation, samples were centrifuged at 1,000 xg for 5 minutes and the supernatant was analysed for the presence of hemoglobin at an absorbance of 405 nm. Complete hemolysis was achieved using 0.1% (v/v) Triton X-100 yielding the 100% control value. The assay was run in duplicate with three different donors.

[4] = reason for exclusion from further investigation

Row | Compound | Growth inhibition [1] | Concentration-response relationship of growth inhibition [1] | other results
1 | pal-SYTIRRLIKA [Peptide 12, palmitoylated peptide from glycophorin-B, common human polymorphism of peptide 11] | clearly observed | clear increases in growth inhibition with increasing concentration | Ability of merozoites to establish new infections in fresh erythrocytes (ring parasitaemia, % of control) [2]: almost totally reduced
2 | CCCCCCCCCCCCCCCC(=O)N[C@@H](CCCNC(=N)N)C(=O)N[C@@H](CCCNC(=N)N)C(=O)N[C@@H](CC(C)C)C(=O)N[C@H](C(=O)N[C@@H](CCCCN)C(=O)N[C@@H](CCCCN)C(=O)N[C@@H](CO)C(=O)N1CCC[C@H]1C(N)=O)[C@@H](C)CC [Peptide 10] (Palmitoyl-RRLIKKSP-NH2) | clearly observed | clear increases in growth inhibition with increasing concentration | Release of haemoglobin from erythrocytes [3]: approximately 50%; Ability of merozoites to establish new infections in fresh erythrocytes (ring parasitaemia, % of control) [2]: not as significant as that of the other two peptides
3 | CCCCCCCCCCCCCCCC(=O)N[C@@H](CO)C(=O)N[C@@H](Cc1ccc(O)cc1)C(=O)N[C@H](C(=O)N[C@H](C(=O)N[C@@H](CCCNC(=N)N)C(=O)N[C@@H](CCCNC(=N)N)C(=O)N[C@@H](CC(C)C)C(=O)N[C@H](C(=O)N[C@@H](CCCCN)C(=O)N[C@@H](C)C(N)=O)[C@@H](C)CC)[C@@H](C)CC)[C@@H](C)O [Peptide 12-Cam] (Palmitoyl-SYTIRRLIKA-NH2) | – | – | Growth inhibition of amidated peptide 12 versus its scrambled versions ([1]; 10 μM, 48 and 72 hours (Fig 4), three experiments in duplicate): more active than four scrambled controls
4 | CCCCCCCCCCCCCCCC(=O)O [Palmitate, reference compound] | no inhibitory effect | – | –
5 | pal-KHRKGNNA-NH2 [Peptide 13, palmitoylated, amidated peptide from complement receptor type 1] | some growth inhibition; also recorded: moderate activity | – | Growth inhibition (dose-response curves) ([1]; 10 μM): no inhibition
6 | pal-KKKLYLYFE-NH2 [Peptide 3] | some growth inhibition | – | Solubility [4]: insolubility
7 | pal-KRKLKEEQRTKKIKID [Peptide 4, palmitoylated peptide from putative calcium-transporting ATPase Q76NN8] | – | – | Antimalarial activity (overall, growth inhibition assay) ([1]; tested at 100 μM, 10 μM and 1 μM): inactive
8 | pal-AALQEPALQDAGESSRKEYFI [glycophorin-C peptide, palmitoylated peptide from glycophorin-C, preliminary testing only] | – | – | Activity in preliminary testing ([1]; preliminary testing, no further tests conducted): no activity
9 | pal-SYSIRRLIKA [Peptide 11, palmitoylated peptide from glycophorin-B] | some growth inhibition | no such clear effect | –
10 | CCCCCCCCCCCCCCCC(=O)N[C@@H](CO)C(=O)N[C@@H](CO)C(=O)N[C@@H](CO)C(=O)N[C@@H](CCCNC(=N)N)C(=O)N[C@@H](CCCCN)C(=O)N[C@@H](CC(N)=O)C(=O)N[C@@H](CCCNC(=N)N)C(=O)N[C@@H](Cc1ccccc1)C(=O)N[C@@H](CCCNC(=N)N)C(=O)N[C@@H](Cc1ccc(O)cc1)C(=O)N[C@@H](CC(C)C)C(=O)N1CCC[C@H]1C(=O)N[C@@H](Cc1ccccc1)C(N)=O [Peptide 5] (Palmitoyl-SSSRKNRFRYLPF-NH2) | clearly observed | clear increases in growth inhibition with increasing concentration | Ability of merozoites to establish new infections in fresh erythrocytes (ring parasitaemia, % of control) [2]: almost totally reduced
11 | pal-KEEIIEIVFDENEEKYF [Peptide 7] | some growth inhibition; also recorded: moderate activity | – | Growth inhibition (dose-response curves) ([1]; 10 μM): no inhibition
